Assay results published in ChEMBL document CHEMBL5291721, “A preclinical secondary pharmacology resource illuminates target-adverse drug reaction associations of marketed drugs” (Nat Commun, 2023).

Legend:
[1] = target: T1, Neuropeptide Y receptor type 2 (Homo sapiens, UniProt P49146)
T1 sequence (P49146 whole entry): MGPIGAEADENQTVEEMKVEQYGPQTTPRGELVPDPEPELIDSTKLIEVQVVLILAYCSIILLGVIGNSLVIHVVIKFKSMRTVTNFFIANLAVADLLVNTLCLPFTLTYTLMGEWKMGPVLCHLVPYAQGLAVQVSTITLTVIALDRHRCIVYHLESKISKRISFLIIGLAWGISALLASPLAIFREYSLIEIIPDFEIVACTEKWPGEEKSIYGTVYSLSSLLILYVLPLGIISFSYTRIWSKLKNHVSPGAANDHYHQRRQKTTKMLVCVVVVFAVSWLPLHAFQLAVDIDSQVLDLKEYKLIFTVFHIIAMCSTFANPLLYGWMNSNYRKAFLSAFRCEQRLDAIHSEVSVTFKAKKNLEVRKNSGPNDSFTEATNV

[2] = target: T2, Muscarinic acetylcholine receptor M5 (Homo sapiens, UniProt P08912)
T2 sequence (P08912 whole entry): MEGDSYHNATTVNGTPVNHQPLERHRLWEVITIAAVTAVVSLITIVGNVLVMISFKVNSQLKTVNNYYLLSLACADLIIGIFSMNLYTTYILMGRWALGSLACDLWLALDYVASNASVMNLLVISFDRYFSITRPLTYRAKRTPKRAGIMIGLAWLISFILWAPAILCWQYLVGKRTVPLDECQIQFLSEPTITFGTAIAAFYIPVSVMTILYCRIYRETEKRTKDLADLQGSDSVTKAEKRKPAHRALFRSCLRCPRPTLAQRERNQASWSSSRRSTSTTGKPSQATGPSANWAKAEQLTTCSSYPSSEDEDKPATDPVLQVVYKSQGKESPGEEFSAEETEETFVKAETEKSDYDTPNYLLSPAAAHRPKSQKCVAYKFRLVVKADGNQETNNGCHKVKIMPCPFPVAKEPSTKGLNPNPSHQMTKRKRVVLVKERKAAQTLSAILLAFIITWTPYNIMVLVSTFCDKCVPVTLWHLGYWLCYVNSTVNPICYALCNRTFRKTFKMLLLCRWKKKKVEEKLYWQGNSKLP

[3] = target: T3, Alpha-1A adrenergic receptor (Homo sapiens, UniProt P35348)
T3 sequence (P35348 whole entry): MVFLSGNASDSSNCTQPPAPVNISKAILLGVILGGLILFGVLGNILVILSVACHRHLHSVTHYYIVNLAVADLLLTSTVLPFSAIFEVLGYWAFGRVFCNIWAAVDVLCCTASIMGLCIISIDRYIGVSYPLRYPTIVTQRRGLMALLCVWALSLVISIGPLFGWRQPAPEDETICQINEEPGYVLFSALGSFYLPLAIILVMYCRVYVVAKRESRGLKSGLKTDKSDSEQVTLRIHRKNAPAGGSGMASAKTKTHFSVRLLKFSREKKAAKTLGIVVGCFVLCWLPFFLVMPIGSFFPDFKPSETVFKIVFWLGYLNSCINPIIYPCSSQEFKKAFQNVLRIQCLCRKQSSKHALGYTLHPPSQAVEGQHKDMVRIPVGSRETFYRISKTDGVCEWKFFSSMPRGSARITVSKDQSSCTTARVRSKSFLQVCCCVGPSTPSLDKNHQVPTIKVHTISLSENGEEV

[4] = target: Gamma-aminobutyric acid receptor subunit alpha-1/alpha-2/beta-2/gamma-2 (Homo sapiens, UniProt P14867+P18507+P47869+P47870); format: functional, cell-based
Cannabinoid receptor 1 = Cannabinoid receptor 1 (Homo sapiens, UniProt P21554); format: functional
[5] = target: Gamma-aminobutyric acid type B receptor subunit 1 (Homo sapiens, UniProt Q9UBS5)
D(4) dopamine receptor = target: T4, D(4) dopamine receptor (Homo sapiens, UniProt P21917)
T4 sequence (P21917 whole entry): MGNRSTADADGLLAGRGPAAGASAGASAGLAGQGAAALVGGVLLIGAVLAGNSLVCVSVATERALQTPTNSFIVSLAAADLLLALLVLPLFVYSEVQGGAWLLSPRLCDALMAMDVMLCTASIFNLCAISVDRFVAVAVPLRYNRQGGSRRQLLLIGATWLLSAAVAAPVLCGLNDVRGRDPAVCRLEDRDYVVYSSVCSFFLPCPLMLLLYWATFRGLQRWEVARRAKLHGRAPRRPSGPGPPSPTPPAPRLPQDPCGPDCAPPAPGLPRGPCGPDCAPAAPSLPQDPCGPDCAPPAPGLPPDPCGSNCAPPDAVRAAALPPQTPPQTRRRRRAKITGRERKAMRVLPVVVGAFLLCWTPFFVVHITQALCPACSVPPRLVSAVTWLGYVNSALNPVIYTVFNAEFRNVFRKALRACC

Estrogen receptor = target: T5, Estrogen receptor (Homo sapiens, UniProt P03372); format: functional
T5 sequence (P03372 whole entry): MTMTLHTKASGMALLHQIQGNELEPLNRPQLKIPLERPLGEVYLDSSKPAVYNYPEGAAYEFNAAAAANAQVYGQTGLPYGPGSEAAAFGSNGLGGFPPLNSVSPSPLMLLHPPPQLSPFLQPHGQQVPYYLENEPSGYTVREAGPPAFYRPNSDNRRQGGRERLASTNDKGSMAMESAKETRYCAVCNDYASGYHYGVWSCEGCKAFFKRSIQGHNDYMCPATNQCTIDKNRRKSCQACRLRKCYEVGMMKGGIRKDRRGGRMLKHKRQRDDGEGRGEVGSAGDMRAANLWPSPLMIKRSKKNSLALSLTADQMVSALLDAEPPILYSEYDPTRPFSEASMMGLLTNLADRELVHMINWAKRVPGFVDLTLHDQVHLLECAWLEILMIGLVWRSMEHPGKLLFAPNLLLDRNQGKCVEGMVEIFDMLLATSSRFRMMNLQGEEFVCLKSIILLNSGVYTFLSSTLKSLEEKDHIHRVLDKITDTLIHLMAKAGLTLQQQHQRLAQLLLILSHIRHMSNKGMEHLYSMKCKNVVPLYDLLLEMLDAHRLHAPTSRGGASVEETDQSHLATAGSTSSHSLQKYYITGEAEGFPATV
Also: assay procedure not described here.

Chain of Gamma-aminobutyric acid receptor subunit alpha-1/alpha-2/beta-2/gamma-2 (P14867 whole entry): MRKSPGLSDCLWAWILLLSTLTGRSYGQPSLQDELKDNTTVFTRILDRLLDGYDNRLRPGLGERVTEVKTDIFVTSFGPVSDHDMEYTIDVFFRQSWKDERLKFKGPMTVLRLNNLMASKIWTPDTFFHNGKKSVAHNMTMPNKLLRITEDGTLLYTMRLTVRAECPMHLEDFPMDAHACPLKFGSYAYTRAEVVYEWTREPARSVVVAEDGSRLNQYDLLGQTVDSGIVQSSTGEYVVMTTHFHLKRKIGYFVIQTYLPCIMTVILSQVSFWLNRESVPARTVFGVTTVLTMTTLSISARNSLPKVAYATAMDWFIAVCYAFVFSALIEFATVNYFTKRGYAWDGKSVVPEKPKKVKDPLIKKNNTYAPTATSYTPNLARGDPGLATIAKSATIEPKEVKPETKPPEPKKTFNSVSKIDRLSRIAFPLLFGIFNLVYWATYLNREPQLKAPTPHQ
Chain of Gamma-aminobutyric acid receptor subunit alpha-1/alpha-2/beta-2/gamma-2 (P47870 whole entry): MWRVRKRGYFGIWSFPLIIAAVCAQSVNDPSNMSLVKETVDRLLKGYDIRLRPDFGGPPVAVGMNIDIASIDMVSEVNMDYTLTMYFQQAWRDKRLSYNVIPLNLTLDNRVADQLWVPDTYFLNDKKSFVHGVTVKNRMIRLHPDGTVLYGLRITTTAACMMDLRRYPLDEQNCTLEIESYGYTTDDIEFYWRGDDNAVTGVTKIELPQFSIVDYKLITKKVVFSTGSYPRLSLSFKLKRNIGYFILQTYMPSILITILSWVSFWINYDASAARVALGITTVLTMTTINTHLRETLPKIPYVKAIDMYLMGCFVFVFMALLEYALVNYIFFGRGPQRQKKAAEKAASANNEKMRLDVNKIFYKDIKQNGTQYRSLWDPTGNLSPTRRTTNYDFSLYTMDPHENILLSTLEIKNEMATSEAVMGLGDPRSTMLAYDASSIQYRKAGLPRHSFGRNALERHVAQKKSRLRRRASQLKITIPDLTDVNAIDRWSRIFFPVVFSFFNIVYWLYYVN
Chain of Gamma-aminobutyric acid receptor subunit alpha-1/alpha-2/beta-2/gamma-2 (P18507 whole entry): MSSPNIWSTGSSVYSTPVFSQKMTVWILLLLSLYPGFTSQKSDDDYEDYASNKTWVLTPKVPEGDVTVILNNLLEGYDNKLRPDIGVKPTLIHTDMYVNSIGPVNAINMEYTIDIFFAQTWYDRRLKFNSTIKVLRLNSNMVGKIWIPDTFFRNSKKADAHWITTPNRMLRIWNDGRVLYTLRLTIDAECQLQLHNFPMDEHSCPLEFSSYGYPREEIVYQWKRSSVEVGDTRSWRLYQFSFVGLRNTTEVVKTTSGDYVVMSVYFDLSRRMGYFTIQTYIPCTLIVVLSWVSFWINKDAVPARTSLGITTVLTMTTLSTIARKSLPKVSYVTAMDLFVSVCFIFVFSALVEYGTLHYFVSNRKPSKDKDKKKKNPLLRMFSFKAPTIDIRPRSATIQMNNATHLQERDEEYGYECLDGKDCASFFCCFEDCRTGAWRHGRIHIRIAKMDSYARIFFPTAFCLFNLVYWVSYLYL
Chain of Gamma-aminobutyric acid receptor subunit alpha-1/alpha-2/beta-2/gamma-2 (P47869 whole entry): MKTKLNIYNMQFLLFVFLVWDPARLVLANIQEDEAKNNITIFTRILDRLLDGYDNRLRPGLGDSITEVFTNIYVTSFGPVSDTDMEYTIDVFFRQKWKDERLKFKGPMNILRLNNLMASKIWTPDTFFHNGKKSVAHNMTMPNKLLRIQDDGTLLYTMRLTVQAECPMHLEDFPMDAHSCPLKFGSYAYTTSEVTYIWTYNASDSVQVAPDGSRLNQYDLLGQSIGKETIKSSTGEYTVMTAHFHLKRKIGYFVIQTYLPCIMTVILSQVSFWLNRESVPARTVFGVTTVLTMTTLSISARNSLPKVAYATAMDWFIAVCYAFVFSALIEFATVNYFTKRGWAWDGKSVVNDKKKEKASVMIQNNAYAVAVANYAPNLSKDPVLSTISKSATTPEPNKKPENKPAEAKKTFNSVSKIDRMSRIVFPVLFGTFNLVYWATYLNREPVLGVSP
Chain of Gamma-aminobutyric acid type B receptor subunit 1 (Q9UBS5 whole entry): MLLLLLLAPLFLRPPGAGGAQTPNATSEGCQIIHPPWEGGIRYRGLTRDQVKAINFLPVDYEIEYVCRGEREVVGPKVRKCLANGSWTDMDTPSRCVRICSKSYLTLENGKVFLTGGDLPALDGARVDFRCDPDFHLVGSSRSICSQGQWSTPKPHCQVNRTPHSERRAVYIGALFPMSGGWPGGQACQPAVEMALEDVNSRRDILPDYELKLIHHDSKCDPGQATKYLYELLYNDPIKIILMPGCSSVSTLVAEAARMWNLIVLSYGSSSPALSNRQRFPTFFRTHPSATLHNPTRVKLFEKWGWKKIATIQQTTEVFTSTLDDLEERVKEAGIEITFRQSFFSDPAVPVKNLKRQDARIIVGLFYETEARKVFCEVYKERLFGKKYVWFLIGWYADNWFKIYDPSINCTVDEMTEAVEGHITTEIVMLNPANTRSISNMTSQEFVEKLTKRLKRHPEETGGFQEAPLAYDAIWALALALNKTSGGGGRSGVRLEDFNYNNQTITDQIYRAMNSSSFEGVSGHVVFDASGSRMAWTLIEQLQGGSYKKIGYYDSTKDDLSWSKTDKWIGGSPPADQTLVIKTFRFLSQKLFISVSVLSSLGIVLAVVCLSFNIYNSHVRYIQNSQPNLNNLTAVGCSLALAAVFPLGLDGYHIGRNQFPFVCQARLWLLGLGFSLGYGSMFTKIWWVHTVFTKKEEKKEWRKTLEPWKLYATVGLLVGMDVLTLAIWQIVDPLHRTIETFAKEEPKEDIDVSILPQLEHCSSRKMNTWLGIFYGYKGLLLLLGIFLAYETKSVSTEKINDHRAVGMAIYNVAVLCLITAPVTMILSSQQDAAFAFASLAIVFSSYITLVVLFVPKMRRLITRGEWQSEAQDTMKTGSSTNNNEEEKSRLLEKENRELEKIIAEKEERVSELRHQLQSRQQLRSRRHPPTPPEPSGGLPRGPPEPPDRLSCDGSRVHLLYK
Chain of Cannabinoid receptor 1 (P21554 whole entry): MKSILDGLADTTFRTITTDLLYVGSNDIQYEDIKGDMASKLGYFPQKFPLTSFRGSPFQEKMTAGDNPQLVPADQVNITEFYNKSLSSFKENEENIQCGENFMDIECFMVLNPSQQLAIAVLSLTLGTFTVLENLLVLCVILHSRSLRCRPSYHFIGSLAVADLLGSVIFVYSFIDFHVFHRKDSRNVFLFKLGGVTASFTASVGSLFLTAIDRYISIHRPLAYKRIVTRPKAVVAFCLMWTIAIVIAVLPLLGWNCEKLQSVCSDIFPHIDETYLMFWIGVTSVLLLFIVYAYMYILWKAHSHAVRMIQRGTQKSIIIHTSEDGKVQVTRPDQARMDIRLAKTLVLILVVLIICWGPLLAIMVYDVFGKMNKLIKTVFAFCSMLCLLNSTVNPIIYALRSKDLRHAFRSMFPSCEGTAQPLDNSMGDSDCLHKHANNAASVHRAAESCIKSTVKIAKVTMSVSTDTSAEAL

For N[C@@H](CC(=O)N1CCn2c(nnc2C(F)(F)F)C1)Cc1cc(F)c(F)cc1F [SITAGLIPTIN], the AC50 [1] was > 10 µM, the AC50 [2] was > 10 µM and the AC50 [3] was > 10 µM. The AC50 [4] was > 30 µM, the AC50 (Cannabinoid receptor 1) was > 10 µM and the AC50 [5] was > 10 µM. For the same molecule, the AC50 (D(4) dopamine receptor) was > 10 µM and the AC50 (Estrogen receptor) was > 30 µM.
